The target of data set [1] is T1, Eukaryotic translation initiation factor 2-alpha kinase 3 (Homo sapiens, UniProt Q9NZJ5).
T1 sequence (Q9NZJ5 whole entry): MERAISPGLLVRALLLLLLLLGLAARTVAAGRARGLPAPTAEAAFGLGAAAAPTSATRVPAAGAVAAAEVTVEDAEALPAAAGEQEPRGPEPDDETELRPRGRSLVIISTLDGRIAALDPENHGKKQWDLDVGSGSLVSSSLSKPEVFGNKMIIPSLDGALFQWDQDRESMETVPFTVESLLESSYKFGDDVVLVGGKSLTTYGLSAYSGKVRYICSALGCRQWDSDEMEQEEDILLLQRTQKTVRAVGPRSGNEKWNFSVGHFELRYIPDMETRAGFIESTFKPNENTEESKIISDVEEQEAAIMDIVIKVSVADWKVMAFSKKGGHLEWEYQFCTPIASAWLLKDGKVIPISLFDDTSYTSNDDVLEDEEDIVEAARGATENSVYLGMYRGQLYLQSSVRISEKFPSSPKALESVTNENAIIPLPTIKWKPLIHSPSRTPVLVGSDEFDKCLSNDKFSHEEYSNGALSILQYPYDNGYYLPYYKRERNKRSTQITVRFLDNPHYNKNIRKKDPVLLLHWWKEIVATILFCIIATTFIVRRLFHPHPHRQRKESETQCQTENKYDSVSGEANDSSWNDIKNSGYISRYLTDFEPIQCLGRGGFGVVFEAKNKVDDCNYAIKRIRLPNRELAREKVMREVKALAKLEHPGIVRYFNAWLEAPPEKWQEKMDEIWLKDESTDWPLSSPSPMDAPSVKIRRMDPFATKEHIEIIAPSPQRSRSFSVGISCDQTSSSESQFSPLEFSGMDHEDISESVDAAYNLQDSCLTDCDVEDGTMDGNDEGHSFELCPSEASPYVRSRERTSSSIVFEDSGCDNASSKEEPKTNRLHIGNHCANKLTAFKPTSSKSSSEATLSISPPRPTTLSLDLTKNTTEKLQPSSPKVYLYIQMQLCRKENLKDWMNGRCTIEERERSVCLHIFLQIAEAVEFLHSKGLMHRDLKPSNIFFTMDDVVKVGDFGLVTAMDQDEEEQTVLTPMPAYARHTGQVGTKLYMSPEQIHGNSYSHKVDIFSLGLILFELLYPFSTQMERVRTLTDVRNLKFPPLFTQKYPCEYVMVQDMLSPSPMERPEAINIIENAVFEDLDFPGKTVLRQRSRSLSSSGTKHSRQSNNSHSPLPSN
Kind of data set: Inhibition of thapsigargin-induced autophosphorylation of PERK in human A549 cells preincubated for 1 hr followed by thapsigargin-induction measured after 1 hr by Western blotting analysis. The class given is cell-based.

A short description of data set [2]: Blood clearance in Sprague-Dawley rat at 2.2 mg/kg, iv by LC-MS/MS analysis. The format is ADME, organism-based. On the set-up: dose 2.2 mg/kg, route intravenous. The conditions noted are these: whole blood.
The target in data set [3] is T1, Eukaryotic translation initiation factor 2-alpha kinase 3. Kind of data set: Inhibition of GST-tagged PERK cytoplasmic domain (536 to 1116) (unknown origin) assessed as biotinylated His6-tagged EIF2alpha phosphorylation preincubated for 30 mins followed by ATP and eIF2alpha addition measured after 1 hr by HTRF assay. (In general: TR-FRET usually uses a lanthanide donor and a delayed reading to cut background.)

Data set [4] concerns the target Interferon-induced, double-stranded RNA-activated protein kinase (Homo sapiens, UniProt P19525). Description: Inhibition of PKR (unknown origin) assessed as EIF2AK2 phosphorylation.
Data set [5] addresses Cytochrome P450 2C19 (Homo sapiens, UniProt P33261). Kind of data set: Inhibition of CYP2C19 in human liver microsomes using mephenytoin as substrate after 5 to 60 mins by LC-MS/MS analysis. The class given is ADME, Microsome. (In general: Microsomes from liver hold many membrane-bound enzymes, among them those of drug oxidation.)
Data set [6] has as its target Eukaryotic translation initiation factor 2-alpha kinase 1 (Homo sapiens, UniProt Q9BQI3). Description: Inhibition of HRI (unknown origin) assessed as EIF2AK1 phosphorylation.
Data set [7] concerns the target T2, Cytochrome P450 2C8 (Homo sapiens, UniProt P10632).
T2 sequence (P10632 whole entry): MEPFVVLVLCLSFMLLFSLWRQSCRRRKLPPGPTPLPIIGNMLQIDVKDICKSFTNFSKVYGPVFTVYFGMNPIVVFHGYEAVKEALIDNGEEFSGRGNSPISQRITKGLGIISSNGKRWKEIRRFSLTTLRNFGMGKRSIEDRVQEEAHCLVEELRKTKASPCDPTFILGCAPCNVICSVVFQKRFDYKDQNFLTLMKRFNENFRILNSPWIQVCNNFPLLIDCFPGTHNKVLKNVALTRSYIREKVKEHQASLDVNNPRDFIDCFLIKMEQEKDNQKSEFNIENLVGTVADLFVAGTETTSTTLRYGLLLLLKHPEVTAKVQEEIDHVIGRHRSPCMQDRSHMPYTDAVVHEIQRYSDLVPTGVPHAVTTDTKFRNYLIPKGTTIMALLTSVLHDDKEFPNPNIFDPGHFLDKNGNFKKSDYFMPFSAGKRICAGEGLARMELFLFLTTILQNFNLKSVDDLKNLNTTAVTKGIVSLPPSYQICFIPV
Description: Inhibition of CYP2C8 in human liver microsomes using paclitaxel as substrate after 5 to 60 mins by LC-MS/MS analysis. The class given is ADME, Microsome.

In data set [8] the target is T3, Cytochrome P450 3A4 (Homo sapiens, UniProt P08684). Description: Inhibition of CYP3A4 in human liver microsomes using nifedipine as substrate after 5 to 60 mins by LC-MS/MS analysis. The class given is ADME, Microsome.
T3 sequence (P08684 whole entry): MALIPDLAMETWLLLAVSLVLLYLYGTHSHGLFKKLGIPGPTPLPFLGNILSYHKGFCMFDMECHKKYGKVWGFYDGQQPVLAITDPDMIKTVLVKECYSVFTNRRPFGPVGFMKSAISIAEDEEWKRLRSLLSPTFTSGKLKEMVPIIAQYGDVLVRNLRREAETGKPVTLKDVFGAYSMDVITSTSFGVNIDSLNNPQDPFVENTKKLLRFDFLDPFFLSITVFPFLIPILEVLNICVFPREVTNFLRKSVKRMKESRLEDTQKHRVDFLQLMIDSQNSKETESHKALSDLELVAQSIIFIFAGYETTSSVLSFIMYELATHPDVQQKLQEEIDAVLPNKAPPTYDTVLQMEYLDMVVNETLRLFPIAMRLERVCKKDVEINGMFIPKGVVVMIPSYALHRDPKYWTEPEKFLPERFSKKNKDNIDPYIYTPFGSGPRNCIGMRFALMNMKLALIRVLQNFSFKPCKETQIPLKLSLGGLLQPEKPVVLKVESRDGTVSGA
Data set [9] addresses T3, Cytochrome P450 3A4. Description: Inhibition of CYP3A4 in human liver microsomes using midazolam as substrate after 5 to 60 mins by LC-MS/MS analysis. The format is ADME, Microsome.
Data set [10] has as its target Cytochrome P450 2C9 (Homo sapiens, UniProt P11712). Kind of data set: Inhibition of CYP2C9 in human liver microsomes using diclofenac as substrate after 5 to 60 mins by LC-MS/MS analysis. The class given is ADME, Microsome.
In data set [11] the target is eIF-2-alpha kinase GCN2 (Homo sapiens, UniProt Q9P2K8). Kind of data set: Inhibition of GCN2 (unknown origin) assessed as EIF2AK4 phosphorylation.
Chain of eIF-2-alpha kinase GCN2 (Q9P2K8 whole entry): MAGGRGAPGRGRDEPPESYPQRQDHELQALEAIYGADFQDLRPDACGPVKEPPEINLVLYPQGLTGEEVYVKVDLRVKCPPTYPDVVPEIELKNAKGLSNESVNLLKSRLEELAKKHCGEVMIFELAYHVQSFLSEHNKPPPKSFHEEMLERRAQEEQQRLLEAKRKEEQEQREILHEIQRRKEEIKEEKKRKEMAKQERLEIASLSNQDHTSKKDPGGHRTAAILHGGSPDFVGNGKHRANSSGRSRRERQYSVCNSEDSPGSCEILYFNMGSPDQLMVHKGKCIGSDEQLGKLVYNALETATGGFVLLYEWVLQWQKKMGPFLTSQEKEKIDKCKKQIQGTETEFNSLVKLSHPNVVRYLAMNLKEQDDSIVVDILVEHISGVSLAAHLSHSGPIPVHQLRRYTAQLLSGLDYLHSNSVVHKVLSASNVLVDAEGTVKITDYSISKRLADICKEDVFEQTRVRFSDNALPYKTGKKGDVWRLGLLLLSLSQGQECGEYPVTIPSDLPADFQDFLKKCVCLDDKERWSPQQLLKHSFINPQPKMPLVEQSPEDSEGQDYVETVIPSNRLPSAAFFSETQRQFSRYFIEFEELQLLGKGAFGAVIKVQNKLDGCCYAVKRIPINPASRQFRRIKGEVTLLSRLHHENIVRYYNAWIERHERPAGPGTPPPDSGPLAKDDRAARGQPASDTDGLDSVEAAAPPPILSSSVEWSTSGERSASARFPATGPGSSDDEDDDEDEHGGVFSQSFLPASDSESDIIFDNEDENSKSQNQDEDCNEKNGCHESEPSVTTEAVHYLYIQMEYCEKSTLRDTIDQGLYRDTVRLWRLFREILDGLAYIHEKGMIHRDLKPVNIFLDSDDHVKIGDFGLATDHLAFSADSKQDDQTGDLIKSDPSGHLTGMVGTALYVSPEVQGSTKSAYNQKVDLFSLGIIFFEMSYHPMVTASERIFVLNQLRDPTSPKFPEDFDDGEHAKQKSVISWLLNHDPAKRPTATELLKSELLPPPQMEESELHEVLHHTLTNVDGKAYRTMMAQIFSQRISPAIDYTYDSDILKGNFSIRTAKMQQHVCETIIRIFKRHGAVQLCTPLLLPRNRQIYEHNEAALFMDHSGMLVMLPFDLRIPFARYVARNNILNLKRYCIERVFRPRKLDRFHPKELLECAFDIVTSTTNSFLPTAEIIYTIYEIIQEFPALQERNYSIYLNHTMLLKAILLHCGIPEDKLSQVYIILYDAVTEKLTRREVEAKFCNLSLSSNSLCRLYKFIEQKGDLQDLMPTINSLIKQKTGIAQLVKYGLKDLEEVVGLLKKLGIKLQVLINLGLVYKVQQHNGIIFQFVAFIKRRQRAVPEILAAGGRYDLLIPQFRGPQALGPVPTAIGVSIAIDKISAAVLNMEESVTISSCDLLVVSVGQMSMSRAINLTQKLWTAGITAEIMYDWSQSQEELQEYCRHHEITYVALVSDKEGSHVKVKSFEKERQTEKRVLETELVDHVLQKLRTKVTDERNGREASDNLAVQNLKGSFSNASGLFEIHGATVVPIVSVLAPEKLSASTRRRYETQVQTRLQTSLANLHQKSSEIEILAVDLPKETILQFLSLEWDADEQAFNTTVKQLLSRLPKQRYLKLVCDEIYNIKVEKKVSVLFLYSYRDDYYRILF
For data set [12], the target named is T4, Cytochrome P450 1A2 (Homo sapiens, UniProt P05177).
T4 sequence (P05177 whole entry): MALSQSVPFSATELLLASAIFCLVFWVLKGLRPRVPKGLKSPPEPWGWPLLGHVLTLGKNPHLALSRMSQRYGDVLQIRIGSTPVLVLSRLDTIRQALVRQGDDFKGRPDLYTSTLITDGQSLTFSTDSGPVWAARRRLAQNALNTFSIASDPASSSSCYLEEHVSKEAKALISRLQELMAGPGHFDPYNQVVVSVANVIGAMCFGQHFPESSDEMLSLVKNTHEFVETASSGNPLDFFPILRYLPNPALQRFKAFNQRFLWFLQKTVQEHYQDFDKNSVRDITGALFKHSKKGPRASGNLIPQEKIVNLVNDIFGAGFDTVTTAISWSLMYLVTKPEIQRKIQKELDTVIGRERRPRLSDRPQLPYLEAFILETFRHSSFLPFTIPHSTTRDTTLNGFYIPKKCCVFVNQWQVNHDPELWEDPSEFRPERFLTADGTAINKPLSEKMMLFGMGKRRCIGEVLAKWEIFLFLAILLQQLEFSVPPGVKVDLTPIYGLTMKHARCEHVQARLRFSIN
Kind of data set: Inhibition of CYP1A2 in human liver microsomes using phenacetin as substrate after 5 to 60 mins by LC-MS/MS analysis. The format is ADME, Microsome.

Data set [13] concerns the target Cytochrome P450 2D6 (Homo sapiens, UniProt P10635). Description: Inhibition of CYP2D6 in human liver microsomes using bufuralol as substrate after 5 to 60 mins by LC-MS/MS analysis. The class given is ADME, Microsome.

Chain of Cytochrome P450 2C9 (P11712 whole entry): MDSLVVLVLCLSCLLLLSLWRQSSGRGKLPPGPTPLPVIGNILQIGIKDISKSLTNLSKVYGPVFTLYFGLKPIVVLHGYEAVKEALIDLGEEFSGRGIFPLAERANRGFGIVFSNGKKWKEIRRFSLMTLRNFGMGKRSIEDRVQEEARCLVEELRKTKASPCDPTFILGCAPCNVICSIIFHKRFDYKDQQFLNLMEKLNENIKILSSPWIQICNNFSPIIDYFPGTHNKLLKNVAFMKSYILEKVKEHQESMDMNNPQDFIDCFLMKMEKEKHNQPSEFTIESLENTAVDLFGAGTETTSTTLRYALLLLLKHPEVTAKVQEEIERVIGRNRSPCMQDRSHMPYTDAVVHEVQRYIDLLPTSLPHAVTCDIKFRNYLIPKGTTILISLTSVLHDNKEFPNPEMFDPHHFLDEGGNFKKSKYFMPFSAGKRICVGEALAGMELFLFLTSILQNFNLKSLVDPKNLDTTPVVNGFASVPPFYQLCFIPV
Chain of Interferon-induced, double-stranded RNA-activated protein kinase (P19525 whole entry): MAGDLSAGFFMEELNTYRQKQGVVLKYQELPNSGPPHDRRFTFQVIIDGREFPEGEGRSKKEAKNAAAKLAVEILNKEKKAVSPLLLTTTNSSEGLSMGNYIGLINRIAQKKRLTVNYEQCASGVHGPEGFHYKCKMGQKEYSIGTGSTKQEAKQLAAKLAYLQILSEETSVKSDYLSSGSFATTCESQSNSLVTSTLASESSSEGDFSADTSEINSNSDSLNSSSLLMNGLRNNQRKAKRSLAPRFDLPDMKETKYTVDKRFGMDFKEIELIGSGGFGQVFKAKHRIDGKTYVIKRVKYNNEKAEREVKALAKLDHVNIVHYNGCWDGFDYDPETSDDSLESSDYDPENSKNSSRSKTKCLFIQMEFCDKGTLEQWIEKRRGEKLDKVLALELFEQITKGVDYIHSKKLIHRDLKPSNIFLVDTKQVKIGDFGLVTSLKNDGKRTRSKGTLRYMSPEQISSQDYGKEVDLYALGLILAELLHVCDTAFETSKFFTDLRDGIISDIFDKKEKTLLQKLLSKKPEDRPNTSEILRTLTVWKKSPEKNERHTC
Chain of Cytochrome P450 2C19 (P33261 whole entry): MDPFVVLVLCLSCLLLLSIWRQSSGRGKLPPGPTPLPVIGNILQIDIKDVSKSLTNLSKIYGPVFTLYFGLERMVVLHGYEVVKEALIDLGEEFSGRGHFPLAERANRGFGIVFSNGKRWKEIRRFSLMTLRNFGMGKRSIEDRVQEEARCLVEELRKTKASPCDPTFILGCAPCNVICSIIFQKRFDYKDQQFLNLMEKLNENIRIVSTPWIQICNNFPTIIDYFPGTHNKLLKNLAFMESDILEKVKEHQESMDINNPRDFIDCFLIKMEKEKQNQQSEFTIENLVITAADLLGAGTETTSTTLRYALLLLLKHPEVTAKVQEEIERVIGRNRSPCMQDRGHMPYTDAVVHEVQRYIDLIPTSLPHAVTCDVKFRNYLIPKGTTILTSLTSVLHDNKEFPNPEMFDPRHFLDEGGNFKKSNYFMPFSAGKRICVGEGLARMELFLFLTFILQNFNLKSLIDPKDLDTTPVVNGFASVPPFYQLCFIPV
Chain of Eukaryotic translation initiation factor 2-alpha kinase 1 (Q9BQI3 whole entry): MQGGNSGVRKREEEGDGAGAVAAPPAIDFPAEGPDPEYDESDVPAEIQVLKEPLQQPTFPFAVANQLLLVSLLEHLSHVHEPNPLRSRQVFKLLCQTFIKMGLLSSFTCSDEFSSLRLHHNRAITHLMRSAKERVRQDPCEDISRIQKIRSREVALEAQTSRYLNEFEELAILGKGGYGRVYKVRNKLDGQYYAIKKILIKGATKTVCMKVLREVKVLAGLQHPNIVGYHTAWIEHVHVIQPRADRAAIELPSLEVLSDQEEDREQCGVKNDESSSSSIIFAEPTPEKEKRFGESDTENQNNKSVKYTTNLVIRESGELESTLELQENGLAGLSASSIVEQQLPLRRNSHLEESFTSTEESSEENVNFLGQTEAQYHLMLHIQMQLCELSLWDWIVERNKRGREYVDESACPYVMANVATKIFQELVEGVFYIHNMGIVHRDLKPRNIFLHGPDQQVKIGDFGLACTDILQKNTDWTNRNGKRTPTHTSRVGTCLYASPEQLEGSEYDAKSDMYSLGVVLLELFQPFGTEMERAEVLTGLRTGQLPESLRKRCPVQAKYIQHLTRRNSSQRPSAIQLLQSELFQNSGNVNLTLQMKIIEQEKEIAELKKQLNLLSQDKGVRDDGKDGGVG
Chain of Cytochrome P450 2D6 (P10635 whole entry): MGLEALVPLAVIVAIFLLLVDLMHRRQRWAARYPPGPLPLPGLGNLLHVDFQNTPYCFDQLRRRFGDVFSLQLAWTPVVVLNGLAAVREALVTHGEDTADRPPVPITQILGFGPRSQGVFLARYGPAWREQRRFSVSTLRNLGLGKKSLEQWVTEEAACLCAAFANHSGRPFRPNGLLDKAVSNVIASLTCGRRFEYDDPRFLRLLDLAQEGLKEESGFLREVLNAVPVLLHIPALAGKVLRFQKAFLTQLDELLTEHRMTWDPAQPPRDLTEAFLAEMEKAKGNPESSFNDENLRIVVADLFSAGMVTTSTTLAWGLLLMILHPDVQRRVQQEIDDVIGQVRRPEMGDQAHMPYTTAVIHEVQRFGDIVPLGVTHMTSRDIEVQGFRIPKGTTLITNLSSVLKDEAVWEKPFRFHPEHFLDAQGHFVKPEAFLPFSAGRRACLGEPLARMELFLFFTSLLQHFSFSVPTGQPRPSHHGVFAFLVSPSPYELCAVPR

By IC50 is commonly meant the concentration that gives 50% inhibition. A word on the clearance: it is the rate of elimination divided by the concentration. High values mean a high capacity for elimination, low ones a low capacity for elimination. Regarding `Cn1cc(-c2ccc3c(c2)CCN3C(=O)Cc2cccc(C(F)(F)F)n2)c2c(N)ncnc21`, the IC50 in [1] is 30 nM; in [3], 0.5 nM. This compound registered a clearance in [2] of 12.8 mL/min/kg.
Consider `Cn1cc(-c2ccc3c(c2F)CCN3C(=O)Cc2cccc(C(F)(F)F)n2)c2c(N)ncnc21`, for which the IC50 in data set [1] is less than 30 nM; in data set [4] it was 359 nM; in [3] it was 0.5 nM; in [5] it was more than 25000 nM; in data set [6], 37 nM; in data set [7], 5830 nM. Also, the IC50 in [8] was 7400 nM; in data set [9] it was 9090 nM; in [10] it was 19200 nM; in [11], 776 nM; in data set [12], more than 25000 nM; in data set [13] it was 23700 nM. In [2], this compound had a clearance of 8.9 mL/min/kg.
As to `Cc1ccn(CC(=O)N2CCc3cc(-c4cn(C)c5ncnc(N)c45)ccc32)n1`, the IC50 in [3] worked out at 57.5 nM.
As to `Cc1ccnn1CC(=O)N1CCc2cc(-c3cn(C)c4ncnc(N)c34)ccc21`, the IC50 in data set [3] was 16.6 nM.
With `Cc1cc(C)n(CC(=O)N2CCc3cc(-c4cn(C)c5ncnc(N)c45)ccc32)n1`, the half-inhibitory concentration (IC50) in [1] came to 100 nM; in data set [3] it was 1.9 nM. The same compound had a clearance in data set [2] of 2.8 mL/min/kg.
Turning to `Cc1cc(C)n(CC(=O)N2CCc3c2ccc(-c2cn(C)c4ncnc(N)c24)c3F)n1`, the IC50 in [1] was 30 nM; in data set [4] it was 99 nM; in [3], 2.7 nM; in [5], more than 25000 nM; in [6] it was 61 nM; in [7], more than 25000 nM. For the same compound, the IC50 in data set [8] is 20500 nM; in data set [9], more than 25000 nM; in data set [10] it was more than 25000 nM; in data set [12], more than 25000 nM; in [13], more than 25000 nM. In data set [2], the clearance was 1.9 mL/min/kg.
